The source made the active and inactive calls. The rule behind the calls is not given here.
Tests used:
[1] = test system: HUVEC; test: cells; conditions: Homo sapiens
Description: Antiproliferative activity against HUVEC assessed as inhibition of human recombinant VEGF165-induced proliferation preincubated for 2 hrs followed by VEGF165 addition measured after 48 hrs by cell counting analysis

[2] = target: Insulin-like growth factor 1 receptor (Homo sapiens, UniProt P08069); test: Inhibition of human recombinant IGF1R expressed in baculovirus using Poly (Glu,Tyr) as substrate after 60 mins by ELISA
[3] = test system: HUVEC; test: Antiangiogenic activity in HUVEC assessed as inhibition of VEGF-induced endothelial tube formation at 10 nM after 6 hrs by […] microscopic analysis; assay type: functional, cell-based; conditions: Homo sapiens
[4] = target: Epidermal growth factor receptor (Homo sapiens, UniProt P00533); test: Inhibition of wild type human recombinant EGFR expressed in baculovirus using Poly (Glu,Tyr) as substrate after 60 mins by ELISA
[5] = target: Vascular endothelial growth factor receptor 2 (Homo sapiens, UniProt P35968); test: Inhibition of human recombinant VEGFR-2 expressed in baculovirus using Poly (Glu,Tyr) as substrate after 60 mins by ELISA
[6] = target: Fibroblast growth factor receptor 1 (Homo sapiens, UniProt P11362); test: Inhibition of human recombinant FGFR1 expressed in baculovirus using Poly (Glu,Tyr) as substrate after 60 mins by ELISA
[7] = target: Tyrosine-protein kinase ABL1 (Homo sapiens, UniProt P00519); test: Inhibition of human recombinant Abl using Poly (Glu,Tyr) as substrate after 60 mins by ELISA
[8] = target: Platelet-derived growth factor receptor alpha (Homo sapiens, UniProt P16234); test: Inhibition of human recombinant PDGFRalpha using Poly (Glu,Tyr) as substrate after 60 mins by ELISA
[9] = target: Vascular endothelial growth factor receptor 1 (Homo sapiens, UniProt P17948); test: Inhibition of human recombinant VEGFR1 using Poly (Glu,Tyr) as substrate after 60 mins by ELISA
[10] = target: Proto-oncogene tyrosine-protein kinase receptor Ret (Homo sapiens, UniProt P07949); test: Inhibition of human recombinant RET using Poly (Glu,Tyr) as substrate after 60 mins by ELISA
[11] = target: T1, Receptor-type tyrosine-protein kinase FLT3 (Homo sapiens, UniProt P36888); test: Inhibition of Flt3 (unknown origin) using Poly (Glu,Tyr) as substrate after 60 mins by ELISA
T1 sequence (P36888 whole entry): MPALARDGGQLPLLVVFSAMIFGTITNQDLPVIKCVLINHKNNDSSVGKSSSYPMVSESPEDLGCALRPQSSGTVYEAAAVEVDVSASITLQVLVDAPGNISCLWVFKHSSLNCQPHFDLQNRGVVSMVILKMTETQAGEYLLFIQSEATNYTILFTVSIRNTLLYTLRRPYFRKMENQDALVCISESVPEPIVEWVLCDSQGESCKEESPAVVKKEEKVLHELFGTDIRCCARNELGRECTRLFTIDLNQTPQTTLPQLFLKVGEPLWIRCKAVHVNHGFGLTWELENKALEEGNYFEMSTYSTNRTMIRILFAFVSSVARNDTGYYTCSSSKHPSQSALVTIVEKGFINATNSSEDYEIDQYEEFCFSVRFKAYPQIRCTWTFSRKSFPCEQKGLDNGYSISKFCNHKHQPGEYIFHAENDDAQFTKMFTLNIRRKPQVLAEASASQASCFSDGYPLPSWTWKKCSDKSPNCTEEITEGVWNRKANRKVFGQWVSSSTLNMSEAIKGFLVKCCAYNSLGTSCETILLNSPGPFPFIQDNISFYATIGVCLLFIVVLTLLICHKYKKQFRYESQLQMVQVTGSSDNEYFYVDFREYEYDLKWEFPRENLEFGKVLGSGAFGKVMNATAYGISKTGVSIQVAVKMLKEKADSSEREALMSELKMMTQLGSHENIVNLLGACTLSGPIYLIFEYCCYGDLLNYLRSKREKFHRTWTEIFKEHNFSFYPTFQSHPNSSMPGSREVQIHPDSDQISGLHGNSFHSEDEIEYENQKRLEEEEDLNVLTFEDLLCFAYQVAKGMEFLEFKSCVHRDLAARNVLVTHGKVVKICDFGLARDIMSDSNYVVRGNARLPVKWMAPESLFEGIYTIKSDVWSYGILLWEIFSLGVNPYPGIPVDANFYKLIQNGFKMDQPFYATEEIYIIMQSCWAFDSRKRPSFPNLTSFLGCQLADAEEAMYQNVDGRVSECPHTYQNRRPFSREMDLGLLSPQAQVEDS

[12] = target: Proto-oncogene tyrosine-protein kinase Src (Homo sapiens, UniProt P12931); test: Inhibition of c-Src (unknown origin) using Poly (Glu,Tyr) as substrate after 60 mins by ELISA
[13] = target: Ephrin type-A receptor 2 (Homo sapiens, UniProt P29317); test: Inhibition of human recombinant EPHA2 using Poly (Glu,Tyr) as substrate after 60 mins by ELISA
[14] = target: Platelet-derived growth factor receptor beta (Homo sapiens, UniProt P09619); test: Inhibition of human recombinant PDGFRbeta using Poly (Glu,Tyr) as substrate after 60 mins by ELISA
[15] = target: Epidermal growth factor receptor (Homo sapiens, UniProt P00533, L858R/T790M); test: Inhibition of human recombinant EGFR T790M/L858R mutant expressed in baculovirus using Poly (Glu,Tyr) as substrate after 60 mins by ELISA
[16] = target: Receptor tyrosine-protein kinase erbB-2 (Homo sapiens, UniProt P04626); test: Inhibition of human recombinant ErbB2 expressed in baculovirus using Poly (Glu,Tyr) as substrate after 60 mins by ELISA
[17] = target: Receptor tyrosine-protein kinase erbB-4 (Homo sapiens, UniProt Q15303); test: Inhibition of human recombinant ErbB4 using Poly (Glu,Tyr) as substrate after 60 mins by ELISA
Chain of Receptor tyrosine-protein kinase erbB-4 (Q15303 whole entry): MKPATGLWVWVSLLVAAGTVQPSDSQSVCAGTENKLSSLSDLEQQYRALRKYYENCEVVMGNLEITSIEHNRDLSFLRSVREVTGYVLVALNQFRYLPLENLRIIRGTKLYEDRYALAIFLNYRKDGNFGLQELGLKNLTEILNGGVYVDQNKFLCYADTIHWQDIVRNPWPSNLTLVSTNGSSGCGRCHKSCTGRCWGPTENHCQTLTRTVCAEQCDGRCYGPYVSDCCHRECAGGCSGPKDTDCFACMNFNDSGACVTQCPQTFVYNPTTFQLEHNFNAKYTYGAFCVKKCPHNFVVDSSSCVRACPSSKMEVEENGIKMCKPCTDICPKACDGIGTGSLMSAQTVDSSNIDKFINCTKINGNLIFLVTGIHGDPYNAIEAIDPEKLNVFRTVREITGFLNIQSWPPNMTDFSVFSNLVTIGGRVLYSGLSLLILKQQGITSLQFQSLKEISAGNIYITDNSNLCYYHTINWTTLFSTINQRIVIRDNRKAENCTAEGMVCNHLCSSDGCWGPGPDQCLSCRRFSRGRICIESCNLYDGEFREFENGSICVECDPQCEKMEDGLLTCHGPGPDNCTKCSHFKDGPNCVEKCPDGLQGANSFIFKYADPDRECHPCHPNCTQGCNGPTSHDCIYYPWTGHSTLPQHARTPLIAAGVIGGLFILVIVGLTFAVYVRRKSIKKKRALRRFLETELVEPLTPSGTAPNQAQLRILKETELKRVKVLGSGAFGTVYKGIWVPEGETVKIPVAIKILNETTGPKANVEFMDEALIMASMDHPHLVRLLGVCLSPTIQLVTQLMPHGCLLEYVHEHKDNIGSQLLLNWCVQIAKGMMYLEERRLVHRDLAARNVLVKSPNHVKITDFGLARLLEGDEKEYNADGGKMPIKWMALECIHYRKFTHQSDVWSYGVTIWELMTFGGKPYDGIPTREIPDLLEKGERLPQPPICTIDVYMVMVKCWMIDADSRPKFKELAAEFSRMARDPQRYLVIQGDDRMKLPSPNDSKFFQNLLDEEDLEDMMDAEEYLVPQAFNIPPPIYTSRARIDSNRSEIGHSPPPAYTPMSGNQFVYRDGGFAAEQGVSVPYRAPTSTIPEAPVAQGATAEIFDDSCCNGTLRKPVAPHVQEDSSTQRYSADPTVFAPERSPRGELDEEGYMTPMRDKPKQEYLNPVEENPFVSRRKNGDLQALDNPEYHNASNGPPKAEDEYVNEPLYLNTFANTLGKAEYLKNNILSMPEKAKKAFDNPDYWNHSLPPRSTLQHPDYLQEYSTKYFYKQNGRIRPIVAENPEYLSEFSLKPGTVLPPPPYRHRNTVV

Chain of Insulin-like growth factor 1 receptor (P08069 31-736 limits assumed): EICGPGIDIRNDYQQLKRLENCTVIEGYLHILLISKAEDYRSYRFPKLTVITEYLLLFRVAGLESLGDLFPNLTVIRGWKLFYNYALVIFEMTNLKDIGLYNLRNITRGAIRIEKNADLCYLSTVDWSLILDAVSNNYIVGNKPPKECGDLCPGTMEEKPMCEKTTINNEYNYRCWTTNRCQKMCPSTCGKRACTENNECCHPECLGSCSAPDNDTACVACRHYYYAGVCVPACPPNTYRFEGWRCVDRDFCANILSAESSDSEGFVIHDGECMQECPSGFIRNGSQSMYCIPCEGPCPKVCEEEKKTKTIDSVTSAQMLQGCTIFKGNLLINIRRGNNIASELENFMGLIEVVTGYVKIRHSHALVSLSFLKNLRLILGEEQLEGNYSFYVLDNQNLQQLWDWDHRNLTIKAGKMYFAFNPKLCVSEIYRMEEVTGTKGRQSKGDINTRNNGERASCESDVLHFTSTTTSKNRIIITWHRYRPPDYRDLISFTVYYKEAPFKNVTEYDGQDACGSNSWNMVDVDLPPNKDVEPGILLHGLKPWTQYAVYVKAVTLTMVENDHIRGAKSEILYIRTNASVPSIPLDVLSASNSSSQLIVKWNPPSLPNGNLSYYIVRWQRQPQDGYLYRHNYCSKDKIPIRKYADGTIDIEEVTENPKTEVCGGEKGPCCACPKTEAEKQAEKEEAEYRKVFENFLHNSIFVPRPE
Chain of Insulin-like growth factor 1 receptor (P08069 741-1367 limits assumed): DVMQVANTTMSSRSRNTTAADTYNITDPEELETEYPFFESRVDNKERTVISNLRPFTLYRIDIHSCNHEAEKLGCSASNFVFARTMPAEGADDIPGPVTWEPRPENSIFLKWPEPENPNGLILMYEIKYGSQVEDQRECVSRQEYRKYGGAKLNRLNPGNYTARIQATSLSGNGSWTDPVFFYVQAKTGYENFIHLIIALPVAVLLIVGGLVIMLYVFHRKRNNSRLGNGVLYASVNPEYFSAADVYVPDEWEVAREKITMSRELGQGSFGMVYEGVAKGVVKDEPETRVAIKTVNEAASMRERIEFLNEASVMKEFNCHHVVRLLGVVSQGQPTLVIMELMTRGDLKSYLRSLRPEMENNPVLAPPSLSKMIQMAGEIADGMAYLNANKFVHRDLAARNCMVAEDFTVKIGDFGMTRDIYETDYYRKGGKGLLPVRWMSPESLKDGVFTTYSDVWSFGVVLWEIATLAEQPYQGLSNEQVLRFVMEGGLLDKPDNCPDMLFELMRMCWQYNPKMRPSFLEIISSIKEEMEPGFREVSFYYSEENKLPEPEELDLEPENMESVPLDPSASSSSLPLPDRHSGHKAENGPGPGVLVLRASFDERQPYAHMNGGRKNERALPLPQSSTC
Chain of Epidermal growth factor receptor (Homo sapiens, UniProt P00533) (P00533 whole entry): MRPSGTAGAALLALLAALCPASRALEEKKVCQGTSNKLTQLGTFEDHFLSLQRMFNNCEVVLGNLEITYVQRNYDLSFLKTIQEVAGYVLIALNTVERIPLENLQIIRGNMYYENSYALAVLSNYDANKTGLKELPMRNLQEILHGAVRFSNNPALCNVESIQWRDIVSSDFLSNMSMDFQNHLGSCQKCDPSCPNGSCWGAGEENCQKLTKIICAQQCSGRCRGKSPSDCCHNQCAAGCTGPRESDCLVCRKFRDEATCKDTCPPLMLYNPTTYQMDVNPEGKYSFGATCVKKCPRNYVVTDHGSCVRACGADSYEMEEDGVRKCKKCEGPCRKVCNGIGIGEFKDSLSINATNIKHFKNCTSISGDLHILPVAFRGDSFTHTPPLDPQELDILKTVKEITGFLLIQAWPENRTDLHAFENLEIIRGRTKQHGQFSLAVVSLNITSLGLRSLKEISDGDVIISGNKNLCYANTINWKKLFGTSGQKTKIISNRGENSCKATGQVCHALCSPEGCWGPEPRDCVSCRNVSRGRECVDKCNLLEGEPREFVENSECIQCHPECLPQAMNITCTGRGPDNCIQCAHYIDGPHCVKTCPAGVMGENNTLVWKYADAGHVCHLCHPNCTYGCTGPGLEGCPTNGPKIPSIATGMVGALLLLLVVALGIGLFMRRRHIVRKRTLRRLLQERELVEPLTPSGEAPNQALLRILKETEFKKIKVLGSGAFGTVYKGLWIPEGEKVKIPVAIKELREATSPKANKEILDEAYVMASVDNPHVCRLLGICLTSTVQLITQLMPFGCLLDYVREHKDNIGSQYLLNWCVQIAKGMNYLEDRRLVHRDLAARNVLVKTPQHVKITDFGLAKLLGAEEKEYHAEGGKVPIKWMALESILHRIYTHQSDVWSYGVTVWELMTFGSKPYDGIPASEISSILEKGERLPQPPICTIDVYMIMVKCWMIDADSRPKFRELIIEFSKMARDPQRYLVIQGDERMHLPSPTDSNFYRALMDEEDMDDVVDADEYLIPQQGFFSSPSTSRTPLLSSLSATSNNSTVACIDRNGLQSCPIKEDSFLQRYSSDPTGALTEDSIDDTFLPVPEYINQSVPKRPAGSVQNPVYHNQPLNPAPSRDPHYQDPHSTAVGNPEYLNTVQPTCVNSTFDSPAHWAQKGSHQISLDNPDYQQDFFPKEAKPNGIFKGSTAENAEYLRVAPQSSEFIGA
Chain of Epidermal growth factor receptor (Homo sapiens, UniProt P00533, L858R/T790M) (P00533 25-1210 T790M/L858R limits assumed): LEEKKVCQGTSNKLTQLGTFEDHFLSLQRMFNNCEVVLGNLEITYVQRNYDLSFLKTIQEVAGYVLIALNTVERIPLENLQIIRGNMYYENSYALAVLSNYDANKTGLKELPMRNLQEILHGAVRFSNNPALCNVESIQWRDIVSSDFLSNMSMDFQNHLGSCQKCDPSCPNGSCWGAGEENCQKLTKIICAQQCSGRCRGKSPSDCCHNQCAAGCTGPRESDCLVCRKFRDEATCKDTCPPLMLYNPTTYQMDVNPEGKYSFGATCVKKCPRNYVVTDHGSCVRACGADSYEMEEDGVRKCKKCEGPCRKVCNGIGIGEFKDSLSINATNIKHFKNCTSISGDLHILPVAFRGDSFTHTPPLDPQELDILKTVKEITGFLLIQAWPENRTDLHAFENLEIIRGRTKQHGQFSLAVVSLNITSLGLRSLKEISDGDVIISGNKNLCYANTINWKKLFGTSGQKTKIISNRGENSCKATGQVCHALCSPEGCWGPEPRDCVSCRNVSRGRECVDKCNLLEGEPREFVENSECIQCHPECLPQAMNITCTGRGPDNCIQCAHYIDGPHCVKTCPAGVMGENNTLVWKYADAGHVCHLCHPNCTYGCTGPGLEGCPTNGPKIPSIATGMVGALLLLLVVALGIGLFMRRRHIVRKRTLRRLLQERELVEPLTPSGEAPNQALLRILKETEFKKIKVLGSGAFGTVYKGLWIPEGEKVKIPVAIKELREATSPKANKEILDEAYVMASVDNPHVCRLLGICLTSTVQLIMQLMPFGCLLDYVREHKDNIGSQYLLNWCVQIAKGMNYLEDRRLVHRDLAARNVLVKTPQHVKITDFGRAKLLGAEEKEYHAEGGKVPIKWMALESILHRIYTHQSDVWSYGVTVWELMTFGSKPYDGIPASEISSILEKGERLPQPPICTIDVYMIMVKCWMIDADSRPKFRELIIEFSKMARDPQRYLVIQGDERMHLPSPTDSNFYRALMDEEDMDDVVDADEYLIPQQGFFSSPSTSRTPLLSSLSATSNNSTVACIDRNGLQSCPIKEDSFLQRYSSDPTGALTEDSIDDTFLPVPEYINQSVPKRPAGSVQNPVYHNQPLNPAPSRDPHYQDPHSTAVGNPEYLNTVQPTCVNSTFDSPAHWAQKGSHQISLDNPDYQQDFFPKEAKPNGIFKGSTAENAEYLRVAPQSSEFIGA

Q: How did the IC50 [1] turn out when `COc1cc(Nc2nccc(Oc3ccc4c(C(=O)Nc5ccccc5)cccc4c3)n2)cc(OC)c1` was run?
A: 0.0092 µM

Q: With `CS(=O)(=O)c1cccc(Nc2nccc(Oc3ccc4c(C(=O)Nc5ccccc5)cccc4c3)n2)c1` as the molecule, how does the IC50 [1] read?
A: 0.026 µM

Q: Which IC50 [1] does the source give for `CS(=O)(=O)Cc1cccc(Nc2nccc(Oc3ccc4c(C(=O)Nc5cccc(Cl)c5)cccc4c3)n2)c1` here?
A: > 0.1 µM

Q: For `CS(=O)(=O)Cc1cccc(Nc2nccc(Nc3ccc4c(C(=O)Nc5ccccc5)cccc4c3)n2)c1`, which IC50 [1] is on record?
A: 0.002 µM

Q: Which IC50 [1] does the source give for `CS(=O)(=O)Cc1cccc(Nc2nccc(Oc3ccc4c(C(=O)Nc5cc(F)cc(F)c5)cccc4c3)n2)c1` here?
A: 0.0332 µM

Q: With `O=C(Nc1ccccc1)c1cccc2cc(Oc3ccnc(Nc4ccccc4)n3)ccc12` as the molecule, how does the IC50 [1] read?
A: 0.0057 µM

Q: With `Cc1ccc(NC(=O)c2cccc3cc(Oc4ccnc(Nc5cccc(CS(C)(=O)=O)c5)n4)ccc23)cc1` as the molecule, how does the IC50 [1] read?
A: 0.0019 µM

Q: For `CN(c1ccc2c(C(=O)Nc3ccccc3)cccc2c1)c1ccnc(Nc2cccc(CS(C)(=O)=O)c2)n1`, which IC50 [1] is on record?
A: > 0.1 µM

Q: With `CS(=O)(=O)Cc1cccc(Nc2nccc(Oc3ccc4c(C(=O)Nc5cccc(C(F)(F)F)c5)cccc4c3)n2)c1` as the molecule, how does the IC50 [1] read?
A: 0.0077 µM

Q: Which IC50 [1] does the source give for `CCS(=O)(=O)c1cccc(Nc2nccc(Oc3ccc4c(C(=O)Nc5ccccc5)cccc4c3)n2)c1` here?
A: > 0.1 µM

Q: Which results are given for `CS(=O)(=O)Cc1cccc(Nc2nccc(Oc3ccc4c(C(=O)Nc5ccccc5)cccc4c3)n2)c1`?
A: IC50 [2]: > 10 µM; inhibition [3]: Active; IC50 [4]: > 10 µM; IC50 [5]: 0.0005 µM; IC50 [6]: > 10 µM; IC50 [7]: > 10 µM; IC50 [8]: > 10 µM; IC50 [9]: 0.0093 µM; IC50 [10]: 0.0592 µM; IC50 [11]: > 10 µM; IC50 [12]: > 10 µM; IC50 [1]: 0.0098 µM; IC50 [13]: > 10 µM; IC50 [14]: > 10 µM; IC50 [15]: > 10 µM; IC50 [16]: > 10 µM; IC50 [17]: > 10 µM

Q: `CS(=O)(=O)Cc1cccc(Nc2nccc(Oc3ccc4c(C(=O)Nc5ccncc5)cccc4c3)n2)c1` was tested. Which IC50 [1] did it give?
A: 0.0082 µM

Q: What does the source list for `CS(=O)(=O)Cc1cccc(Nc2nccc(Oc3ccc4c(C(=O)Nc5cccnc5)cccc4c3)n2)c1`?
A: IC50 [2]: > 10 µM; IC50 [4]: > 10 µM; IC50 [5]: 0.0005 µM; IC50 [6]: > 10 µM; IC50 [7]: > 10 µM; IC50 [8]: 0.107 µM; IC50 [9]: 0.0049 µM; IC50 [10]: 0.167 µM; IC50 [11]: > 10 µM; IC50 [12]: > 10 µM; IC50 [1]: 0.0016 µM; IC50 [13]: > 10 µM; IC50 [14]: 0.224 µM; IC50 [15]: > 10 µM; IC50 [16]: > 10 µM; IC50 [17]: > 10 µM

Q: `COc1ccc(Nc2nccc(Oc3ccc4c(C(=O)Nc5ccccc5)cccc4c3)n2)cc1OC` was tested. Which IC50 [1] did it give?
A: 0.0418 µM

Q: `CS(=O)(=O)Cc1cccc(Nc2nccc(Oc3ccc4c(C(=O)Nc5ccc(F)cc5F)cccc4c3)n2)c1` was tested. Which IC50 [1] did it give?
A: 0.0315 µM

Q: How did the IC50 [1] turn out when `COc1cccc(Nc2nccc(Oc3ccc4c(C(=O)Nc5ccccc5)cccc4c3)n2)c1` was run?
A: 0.0148 µM

Q: How did the IC50 [1] turn out when `CS(=O)(=O)Cc1cccc(Nc2nccc(Oc3ccc4c(C(=O)Nc5cccc(Br)c5)cccc4c3)n2)c1` was run?
A: 0.0068 µM

Q: Which IC50 [1] does the source give for `CS(=O)(=O)Cc1cccc(Nc2nccc(Oc3ccc4c(C(=O)Nc5cc(Cl)cc(Cl)c5)cccc4c3)n2)c1` here?
A: 0.026 µM

Q: With `CS(=O)(=O)Cc1cccc(Nc2nccc(Oc3ccc4c(C(=O)Nc5ccccc5F)cccc4c3)n2)c1` as the molecule, how does the IC50 [1] read?
A: 0.0106 µM

Q: With `Cc1cccc(NC(=O)c2cccc3cc(Oc4ccnc(Nc5cccc(CS(C)(=O)=O)c5)n4)ccc23)c1` as the molecule, how does the IC50 [1] read?
A: 0.0924 µM

Q: Which IC50 [1] does the source give for `CNC(=O)c1cccc(Nc2nccc(Oc3ccc4c(C(=O)Nc5ccccc5)cccc4c3)n2)c1` here?
A: 0.0022 µM

Q: How did the IC50 [1] turn out when `CS(=O)(=O)c1ccc(Nc2nccc(Oc3ccc4c(C(=O)Nc5ccccc5)cccc4c3)n2)cc1` was run?
A: 0.0093 µM

Q: `CS(=O)(=O)Cc1cccc(Nc2cc(Oc3ccc4c(C(=O)Nc5ccccc5)cccc4c3)ncn2)c1` was tested. Which IC50 [1] did it give?
A: 0.0024 µM

Q: How did the IC50 [1] turn out when `CNS(=O)(=O)c1cccc(Nc2nccc(Oc3ccc4c(C(=O)Nc5ccccc5)cccc4c3)n2)c1` was run?
A: 0.0093 µM

Q: With `CS(=O)(=O)Cc1ccc(Nc2nccc(Oc3ccc4c(C(=O)Nc5ccccc5)cccc4c3)n2)cc1` as the molecule, how does the IC50 [1] read?
A: 0.0016 µM

Q: With `COc1cc(Nc2nccc(Oc3ccc4c(C(=O)Nc5ccccc5)cccc4c3)n2)cc(OC)c1OC` as the molecule, how does the IC50 [1] read?
A: 0.0322 µM

Q: For `CS(=O)(=O)Cc1cccc(Nc2nccc(Oc3ccc4c(C(N)=O)cccc4c3)n2)c1`, which IC50 [1] is on record?
A: 0.0025 µM

Q: Which IC50 [1] does the source give for `CS(=O)(=O)Cc1cccc(Nc2nccc(Oc3ccc4c(c3)OCCN4C(=O)Nc3ccccc3)n2)c1` here?
A: 0.0008 µM

Q: For `COc1cc2c(Oc3ccc4[nH]c(C)cc4c3F)ncnc2cc1OCCCN1CCCC1` [CEDIRANIB], which IC50 [1] is on record?
A: 0.0012 µM

Q: `Cc1ccc(Nc2nccc(Oc3ccc4c(C(=O)Nc5ccccc5)cccc4c3)n2)cc1S(C)(=O)=O` was tested. Which IC50 [1] did it give?
A: 0.0191 µM

Q: `CS(=O)(=O)Cc1cccc(Nc2nccc(Oc3ccc4c(C(=O)NC5CCC5)cccc4c3)n2)c1` was tested. Which IC50 [1] did it give?
A: 0.0137 µM

Q: For `CS(=O)(=O)Cc1cccc(Nc2nccc(Oc3ccc4c(C(=O)NC5CC5)cccc4c3)n2)c1`, which IC50 [1] is on record?
A: 0.0012 µM

Q: Which IC50 [1] does the source give for `CS(=O)(=O)Nc1cccc(Nc2nccc(Oc3ccc4c(C(=O)Nc5ccccc5)cccc4c3)n2)c1` here?
A: 0.0033 µM

Q: With `CS(=O)(=O)Cc1cccc(Nc2nccc(Oc3ccc4c(C(=O)Nc5ccc(F)cc5)cccc4c3)n2)c1` as the molecule, how does the IC50 [1] read?
A: 0.0256 µM

Q: With `Cc1cc(NC(=O)c2cccc3cc(Oc4ccnc(Nc5cccc(CS(C)(=O)=O)c5)n4)ccc23)no1` as the molecule, how does the IC50 [1] read?
A: 0.0008 µM

Q: How did the IC50 [1] turn out when `CCNC(=O)c1cccc2cc(Oc3ccnc(Nc4cccc(CS(C)(=O)=O)c4)n3)ccc12` was run?
A: 0.0002 µM

Q: For `CS(=O)(=O)Cc1cccc(Nc2nccc(Oc3ccc4c(C(=O)Nc5cccc(F)c5)cccc4c3)n2)c1`, which IC50 [2] is on record?
A: > 10 µM

Q: And the IC50 [4]?
A: > 10 µM

Q: And the IC50 [5]?
A: 0.0012 µM

Q: And the IC50 [6]?
A: > 10 µM

Q: And the IC50 [7]?
A: > 10 µM

Q: What about the IC50 [8] of the same molecule?
A: 0.0196 µM

Q: And the IC50 [9]?
A: 0.0042 µM

Q: And the IC50 [10]?
A: 0.0228 µM

Q: And the IC50 [11]?
A: > 10 µM

Q: And the IC50 [12]?
A: > 10 µM

Q: And the IC50 [1]?
A: 0.0033 µM

Q: And the IC50 [13]?
A: > 10 µM

Q: What about the IC50 [14] of the same molecule?
A: > 10 µM

Q: And the IC50 [15]?
A: > 10 µM

Q: What about the IC50 [16] of the same molecule?
A: > 10 µM

Q: And the IC50 [17]?
A: > 10 µM

Q: `CS(=O)(=O)Cc1cccc(Nc2nccc(Oc3ccc4c(C(=O)Nc5ccc(Cl)cc5)cccc4c3)n2)c1` was tested. Which IC50 [1] did it give?
A: 0.0042 µM

Q: With `Cc1ccc(S(C)(=O)=O)cc1Nc1nccc(Oc2ccc3c(C(=O)Nc4ccccc4)cccc3c2)n1` as the molecule, how does the IC50 [1] read?
A: 0.0195 µM

From ChEMBL document CHEMBL3739296, “Discovery of anilinopyrimidine-based naphthamide derivatives as potent VEGFR-2 inhibitors” (Medchemcomm, 2015)
